Series [1] in a line: Determination of C Log P (n-octanol/water partition, gamma counts). The series is classed as physicochemical. The protocol: Two EP tubes were taken, and 100 μL of saturated n-octanol aqueous solution and 80 µL of pure water were added to each tube, respectively. […] After shaking and mixing for 2 hours, the tubes were centrifuged at room temperature at 2000 rpm/min for 5 minutes. 20 μL was taken from the upper layer (lipid layer) and lower layer (aqueous layer) of each tube, and gamma counts were measured.

Series [2] concerns the target T1, fibroblast activation protein (FAP) (Homo sapiens, UniProt Q12884).
T1 sequence (Q12884 1-760): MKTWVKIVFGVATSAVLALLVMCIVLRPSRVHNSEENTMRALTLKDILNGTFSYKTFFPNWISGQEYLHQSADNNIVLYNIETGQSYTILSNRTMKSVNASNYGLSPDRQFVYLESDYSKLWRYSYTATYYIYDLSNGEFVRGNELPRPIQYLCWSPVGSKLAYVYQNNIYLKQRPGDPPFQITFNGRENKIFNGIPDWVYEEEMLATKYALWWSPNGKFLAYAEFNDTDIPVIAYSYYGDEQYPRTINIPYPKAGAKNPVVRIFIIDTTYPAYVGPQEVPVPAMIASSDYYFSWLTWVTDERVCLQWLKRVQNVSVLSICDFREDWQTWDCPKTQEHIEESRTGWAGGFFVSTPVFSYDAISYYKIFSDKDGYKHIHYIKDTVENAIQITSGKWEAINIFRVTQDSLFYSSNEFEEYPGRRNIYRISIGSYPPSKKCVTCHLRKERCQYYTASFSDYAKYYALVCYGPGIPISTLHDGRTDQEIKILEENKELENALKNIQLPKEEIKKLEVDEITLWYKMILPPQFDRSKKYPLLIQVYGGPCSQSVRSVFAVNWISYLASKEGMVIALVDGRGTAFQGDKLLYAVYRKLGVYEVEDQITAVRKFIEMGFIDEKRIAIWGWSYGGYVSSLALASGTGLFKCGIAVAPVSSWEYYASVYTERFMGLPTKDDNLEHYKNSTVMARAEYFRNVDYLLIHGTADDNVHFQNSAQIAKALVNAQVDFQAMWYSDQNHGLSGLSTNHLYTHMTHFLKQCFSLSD
Kind of series: Protease inhibition (selectivity) assay, FAP, Z-Gly-Pro-AMC substrate. It counts as biochemical. To be noted: recombinant human FAP 1.2 nM. How it is done: (§1) The specificity of the synthesized compounds for recombinant human dipeptidyl peptidase IV (DPPIV), fibroblast activation protein (FAP), or prolyl oligopeptidase (PREP) was expressed by their half-maximal inhibitory concentration (IC50) against the proteases. […] No. I-1145.0050BA) in DMSO; DPPIV: 100 mM Gly-Pro-AMC (VWR, Cat. No. 100042-646) in DMSO), and the stock solution of the substrate was subsequently diluted 20-fold using the corresponding buffer described above. • 4) The enzyme was diluted into an appropriate assay buffer. […] Column 1 (A, B, C) was prepared using 200 μL of an appropriate analysis buffer as a control. Column 1 (D, E, F, G, H) was prepared with 20 μL of an appropriate assay buffer and 180 μL of the enzyme as the inhibitor-free control. • 5) Where appropriate, 20 μL of the test compound was added from the dilution plate prepared in step 2 to columns 2-10 of the assay plate. Each sample should be tested in triplicate. It was incubated at room temperature for 10 minutes, with the plate being shaken for the first two minutes. • 6) 10 μL of the 20× substrate prepared in step 3 was added to each well and incubated at room temperature for 15 minutes, with the plate being shaken for the first two minutes. • 7) Fluorescence was read at λex:380 and λem:460.

Series [3] deals with dipeptidyl peptidase IV (DPPIV) (Homo sapiens, UniProt P27487). Briefly: Protease inhibition (selectivity) assay, DPPIV, Gly-Pro-AMC substrate. It counts as biochemical. To be noted: recombinant human DPPIV 0.1 nM; read-out: pIC50 (DPPIV) (converted). How it is done:
as §1

For series [4], the target named is T2, FAP protein (Homo sapiens, UniProt Q12884).
T2 construct: purchased Sinobiological
T2 sequence (Q12884 1-760): T1 sequence (Q12884 1-760)
Kind of series: Biacore test of compound affinity to FAP protein. To be noted: Biacore 8K, SA chip, 15° C., 1:1 binding model; read-out: pKD (FAP) (converted). The method, boiled down: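 FAP captured on an SA chip; compounds run as analyte in single-cycle kinetics at 15° C (90 s contact, 1800 s dissociation, 30 μL/min), reference-subtracted (2-1). Sensorgrams fitted to a 1:1 binding model to give KD, reported as pKD = −log KD.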

In series [5] the target is T3, prolyl oligopeptidase (PREP) (Homo sapiens, UniProt P48147).
T3 sequence (P48147 1-710): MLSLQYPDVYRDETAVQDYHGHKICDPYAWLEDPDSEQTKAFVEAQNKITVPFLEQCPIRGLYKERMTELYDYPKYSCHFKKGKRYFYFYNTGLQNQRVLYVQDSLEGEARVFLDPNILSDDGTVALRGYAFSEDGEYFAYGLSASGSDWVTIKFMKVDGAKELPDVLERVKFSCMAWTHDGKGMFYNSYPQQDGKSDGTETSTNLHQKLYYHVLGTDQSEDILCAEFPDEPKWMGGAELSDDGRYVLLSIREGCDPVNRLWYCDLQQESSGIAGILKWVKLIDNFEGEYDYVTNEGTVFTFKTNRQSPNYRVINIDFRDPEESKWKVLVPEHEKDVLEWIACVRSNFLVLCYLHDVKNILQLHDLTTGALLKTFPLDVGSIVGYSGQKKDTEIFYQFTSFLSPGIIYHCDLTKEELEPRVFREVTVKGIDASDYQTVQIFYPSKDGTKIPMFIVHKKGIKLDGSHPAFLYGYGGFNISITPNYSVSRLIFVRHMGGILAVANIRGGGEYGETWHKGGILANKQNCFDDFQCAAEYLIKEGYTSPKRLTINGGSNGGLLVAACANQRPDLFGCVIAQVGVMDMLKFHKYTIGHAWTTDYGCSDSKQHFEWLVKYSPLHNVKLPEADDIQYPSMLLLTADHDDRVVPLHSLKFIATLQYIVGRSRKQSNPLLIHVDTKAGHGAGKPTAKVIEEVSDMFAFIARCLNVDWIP
Kind of series: Protease inhibition (selectivity) assay, PREP, Z-Gly-Pro-AMC substrate. To be noted: recombinant human PREP 0.6 nM. It counts as biochemical. How it is done: as §1

Numbered stars: 1 amine (or outer) side, 2 acyl side, 3 side chain; on linkers, the order of the positions; unused ones are H or OH. Bridge positions count the residues as written; N and C are the ends. Square brackets hold non-standard residues; d marks the D form. Side chains are listed from the residue outwards. Peptide text beside a SMILES is read from it. * marks the point of attachment. ξ: configuration not given here. X6 = CCCCCC(=O)N[C@@H](CSCc1cccc(C[*:2])c1)C(=O)C1CCC[C@@H](CC(=O)[*:1])C1; X1 = O=C(O)CN1CCN(CC(=O)O)CCN(CC(=O)CCCN*)CCN(CC(=O)O)CC1; DOTA = O=C(O)CN1CCN(CC(=O)O)CCN(CC(=O)*)CCN(CC(=O)O)CC1; Azetidine3carboxylic = O=C(C1CN([*:1])C1)[*:2]; mXylylene = c1cc(C[*:1])cc(C[*:2])c1; Cha = N[C@@H](CC1CCCCC1)C(=O)O; ξQ = NC(=O)CCC(N)C(=O)O; CO = O=C([*:1])[*:2]; Ahx = NCCCCCC(=O)O; ξP = O=C(O)C1CCCN1; NHBu = CCCCN* Where only a bound is given, the exact number is not on record here.

dipeptidyl peptidase IV (DPPIV), sequence (P27487 whole entry): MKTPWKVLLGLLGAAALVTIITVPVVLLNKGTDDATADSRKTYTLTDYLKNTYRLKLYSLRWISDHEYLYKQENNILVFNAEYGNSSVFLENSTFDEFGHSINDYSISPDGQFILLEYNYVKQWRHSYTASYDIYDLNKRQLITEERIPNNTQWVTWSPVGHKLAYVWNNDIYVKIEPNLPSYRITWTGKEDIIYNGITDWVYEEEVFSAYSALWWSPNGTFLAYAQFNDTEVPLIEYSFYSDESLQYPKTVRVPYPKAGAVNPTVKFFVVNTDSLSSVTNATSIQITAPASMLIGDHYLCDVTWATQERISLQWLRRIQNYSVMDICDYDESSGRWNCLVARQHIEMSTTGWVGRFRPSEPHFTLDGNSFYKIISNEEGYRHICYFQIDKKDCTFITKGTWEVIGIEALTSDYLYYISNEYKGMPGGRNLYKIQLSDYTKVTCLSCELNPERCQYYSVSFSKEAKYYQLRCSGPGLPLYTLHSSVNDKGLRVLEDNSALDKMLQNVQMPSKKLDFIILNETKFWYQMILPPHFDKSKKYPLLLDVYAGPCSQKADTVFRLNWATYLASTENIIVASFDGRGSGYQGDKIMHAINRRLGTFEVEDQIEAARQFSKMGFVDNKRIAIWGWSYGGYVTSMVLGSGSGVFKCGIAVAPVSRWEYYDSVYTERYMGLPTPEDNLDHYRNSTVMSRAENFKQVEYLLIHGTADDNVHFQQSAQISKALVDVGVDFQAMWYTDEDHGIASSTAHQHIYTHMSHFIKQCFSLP

Consider `CCCCCC(=O)N[C@H]1CSCc2cccc(c2)CSC[C@@H](C(=O)N[C@@H](CCCCNC(=O)CCCCCNC(=O)CN2CCN(CC(=O)O)CCN(CC(=O)O)CCN(CC(=O)O)CC2)C(=O)O)NC(=O)[C@H](CC2CCCCC2)NC(=O)C(CCC(N)=O)NC(=O)[C@H]([C@@H](C)O)NC(=O)C2CCCN2C(=O)C[C@@H]2CCCC(C2)C1=O` (some centres unmarked) [^177Lu -JHDC13, metal not drawn] ([ξP]T[ξQ][Cha]CK([Ahx-DOTA])-OH; linker N-5 via X6), for which the logP in series [1] was -1.3.
On the same count and under the same terms, the value for `CCCCCC(=O)N[C@H]1CCCCn2cc(nn2)CC(C(=O)N[C@@H](CCCCNC(=O)CN2CCN(CC(=O)O)CCN(CC(=O)O)CCN(CC(=O)O)CC2)C(=O)O)NC(=O)[C@H](Cc2ccccc2)NC(=O)[C@H](CCC(N)=O)NC(=O)[C@H]([C@@H](C)O)NC(=O)C2CCCN2C(=O)N[C@@H]2CCCN(C2)C1=O` (single isomer, unassigned) [^177Lu -JHDC11, metal not drawn] was -3.65.
For `CCCCNC(=O)N[C@H]1CSCc2cccc(c2)CSC[C@@H](C(=O)N[C@@H](CCC(=O)NCCCC(=O)CN2CCN(CC(=O)O)CCN(CC(=O)O)CCN(CC(=O)O)CC2)C(=O)O)NC(=O)[C@H](Cc2ccccc2)NC(=O)[C@H](CCC(N)=O)NC(=O)[C@H]([C@@H](C)O)NC(=O)[C@@H]2CCCN2C(=O)C2CN(C2)C1=O` [JHDC24, nBu-urea-[Cys(3MeBn)-hhy39-Pro-Thr-Gln-Phe-Cys]-Glu-(EDA-DOTA)-OH] ({NHBu-CO}-C[Azetidine3carboxylic]PTQFCE(X1)-OH; linker 1-7 via mXylylene), the IC50 in series [2] was less than 10 nM; in series [3] it was greater than 1000 nM; in series [5], greater than 1000 nM. Also, the Kd in series [4] was 10 to 100 nM.
In the case of `CCCCCC(=O)N[C@H]1CCCCn2cc(nn2)CSC[C@@H](C(=O)N[C@@H](CCCCNC(=O)COCCNC(=O)CN2CCN(CC(=O)O)CCN(CC(=O)O)CCN(CC(=O)O)CC2)C(=O)O)NC(=O)[C@H](Cc2ccccc2)NC(=O)[C@H](CCC(N)=O)NC(=O)[C@H]([C@@H](C)O)NC(=O)[C@@H]2CCCN2C(=O)C2CN(C2)C1=O` (single isomer, unassigned) [^177Lu -JHDC12, metal not drawn], in series [1], the logP was -3.81.
In the case of `CCCCCC(=O)N[C@H]1CSCc2cccc(c2)CSC[C@@H](C(=O)N[C@@H](CCC(=O)NCCNC(=O)CN2CCN(CC(=O)O)CCN(CC(=O)O)CCN(CC(=O)O)CC2)C(=O)O)NC(=O)[C@H](Cc2ccccc2)NC(=O)[C@H](CCC(N)=O)NC(=O)[C@H]([C@@H](C)O)NC(=O)[C@@H]2CCCN2C(=O)C2CN(C2)C1=O` [JHDC23, Hex[Cys(3MeBn)-hhy39-Pro-Thr-Gln-Phe-Cys]-Glu-(EDA-DOTA)-OH], the IC50 in series [2] is less than 10 nM; in series [3], greater than 1000 nM; in series [5], greater than 1000 nM. Also, the Kd in series [4] was 10 to 100 nM.

Values taken from patent publication US20260274894A1, “CYCLIC POLYPEPTIDE COMPOUND AND USE THEREOF” (BIVISION PHARMACEUTICALS, INC., priority 2023, published 2026).
